≈ marks a conversion by molar mass, not a printed value. Like-named read-outs stand apart in the source and are kept apart here. Peptide text beside a SMILES is read from it.
Assays:
[1] = test system: Escherichia coli ATCC 25922 (QC); format: cell-based
Experimental: (§1) Each peptide was formulated in PBS buffer prior to testing. Peptides of SEQ ID NO:5 and SEQ ID NO:8 were brought up in 100% DMSO with 0.002% polysorbate-80 at 1.28 mg/mL (40× the highest final test concentration of 32 mcg/mL). Final test concentration of DMSO was 2.5% in the assay at the first dilution for those two compounds.
(§2) Mueller Hinton II broth (MHB II; BD; Lot Nos. 6258541 and 7143896) was used for MIC testing of aerobic organisms. 0.002% polysorbate 80 (P80) was added to the test medium.
(§3) MIC values were determined using a broth microdilution procedure described by CLSI (1, 3). Automated liquid handlers (Multidrop 384, Labsystems, Helsinki, Finland; Biomek 2000 and Biomek FX, Beckman Coulter, Fullerton CA) were used to conduct serial dilutions and liquid transfers.
(§4) To prepare the drug mother plates, which would provide the serial peptide dilutions for the replicate daughter plates, the wells of columns 2-12 of standard 96-well microdilution plates (Costar 3795) were filled with 150 μl of the designated diluent for each row of peptide. The test articles and comparator compounds (300 μl at 40× the highest concentration to be tested) were dispensed into the appropriate wells in column 1. The Biomek 2000 was then used to make 2-fold serial dilutions in the mother plates from column 1 through column 11. The wells of Column 12 contained no drug and served as the organism growth control wells for the assay.
(§5) The daughter plates were loaded with 185 μL per well of MHB II using the Multidrop 384. The daughter plates were completed on the Biomek FX instrument which transferred 5 uL of peptide solution from each well of a mother plate to the corresponding well of each daughter plate in a single step. A standardized inoculum of each test organism was prepared per CLSI methods. The inoculum for each organism was dispensed into sterile reservoirs divided by length (Beckman Coulter), and the Biomek 2000 was used to inoculate the plates. Daughter plates were placed on the Biomek 2000 work surface in reverse orientation so that inoculation took place from low to high drug concentration. The plates were then inoculated with 10 μL of the inoculum resulting in a final cell density of approximately 5×10^5 CFU/mL, per well.
(§6) Plates were stacked 3-4 high, covered with a lid on the top plate, placed in plastic bags, and incubated at 35° C. for 16 to 20 hrs. Following incubation, the microplates were removed from the incubator and viewed from the bottom using a plate viewer. […] The MIC was read and recorded as the lowest concentration of peptide that inhibited visible growth of the organism.

[2] = test system: Pseudomonas aeruginosa ATCC 27853 (non-MDR; QC); format: cell-based
Experimental: as §1, §2, §3, §4, §5, §6

[3] = test system: Staphylococcus aureus ATCC 43300 (MRSA); format: cell-based
Experimental: as §1, §2, §3, §4, §5, §6

[4] = test system: Staphylococcus aureus NRS382 (USA100; HA-MRSA); format: cell-based
Experimental: as §1, §2, §3, §4, §5, §6

[5] = test system: Streptococcus agalactiae ATCC 13813; format: cell-based
Experimental: as §1, §2, §3, §4, §5, §6

[6] = test system: Acinetobacter spp. isolates (n = 104)
Experimental: (§7) Comparator antibiotics were supplied by Micromyx, and stock solutions were prepared on the first day of testing using solvents recommended by CLSI (1). Stock solutions of all compounds were made at 40× the final testing concentration and stored at −80° C. prior to testing. Information regarding compound source, catalog and lot number, testing concentrations and drug diluent for the comparators and test agent are detailed below in Table 3.
(§8) The test organisms evaluated in this study consisted of clinical isolates from the Micromyx Repository and reference isolates from the American Type Culture Collection (ATCC; Manassas, VA). The clinical isolates were obtained from USA hospitals. Upon initial receipt at Micromyx, the organisms were sub-cultured onto an appropriate agar medium. Following incubation, colonies were harvested from these plates and cell suspensions prepared and frozen at −80° C. with a cryoprotectant. Prior to testing, the isolates were streaked from frozen vials onto Trypticase Soy Agar with 5% sheep blood (Becton Dickenson [BD]; Sparks, MD; Lot Nos. 7173618, 7166759, 7208688, 72144895, 7228505 and Remel Lenexa, KS Lot No. 212574). Plates were incubated at 35° C. overnight.
(§9) Mueller Hinton II broth (MHB II; BD; Lot Nos. 6258541 and 7143896) was used for MIC testing of aerobic organisms.
as §3
as §4, with “drug” for “peptide”, “drug.” for “peptide.”
as §5, with “μL” for “uL”, “drug” for “peptide”, “methods (1).” for “methods.”, “concentration.” for “concentration. The plates were then inoculated with 10 μL of the inoculum resulting in a final cell density of approximately 5×10^5 CFU/mL, per well.”
as §6, with “drug” for “peptide”
(§10) Clinical breakpoints to determine percent resistance within a given organism group were obtained from CLSI (3), with the exception of colistin for K. pneumoniae, Enterobacter spp., and E. coli, which are only available from EUCAST.

[7] = test system: Escherichia coli isolates (n = 101)
Experimental: as §7, §8, §9, §3
as §4, with “drug” for “peptide”, “drug.” for “peptide.”
as §5, with “μL” for “uL”, “drug” for “peptide”, “methods (1).” for “methods.”, “concentration.” for “concentration. The plates were then inoculated with 10 μL of the inoculum resulting in a final cell density of approximately 5×10^5 CFU/mL, per well.”
as §6, with “drug” for “peptide”
as §10

[8] = test system: Klebsiella pneumoniae isolates (n = 101)
Experimental: as §7, §8, §9, §3
as §4, with “drug” for “peptide”, “drug.” for “peptide.”
as §5, with “μL” for “uL”, “drug” for “peptide”, “methods (1).” for “methods.”, “concentration.” for “concentration. The plates were then inoculated with 10 μL of the inoculum resulting in a final cell density of approximately 5×10^5 CFU/mL, per well.”
as §6, with “drug” for “peptide”
as §10

[9] = test system: Pseudomonas aeruginosa isolates (n = 109)
Experimental: as §7, §8, §9, §3
as §4, with “drug” for “peptide”, “drug.” for “peptide.”
as §5, with “μL” for “uL”, “drug” for “peptide”, “methods (1).” for “methods.”, “concentration.” for “concentration. The plates were then inoculated with 10 μL of the inoculum resulting in a final cell density of approximately 5×10^5 CFU/mL, per well.”
as §6, with “drug” for “peptide”
as §10

[10] = test system: Enterobacter spp. isolates (Enterobacter aerogenes and E. cloacae, n = 102); experiment: organism not typed
Experimental: as §7, §8, §9, §3
as §4, with “drug” for “peptide”, “drug.” for “peptide.”
as §5, with “μL” for “uL”, “drug” for “peptide”, “methods (1).” for “methods.”, “concentration.” for “concentration. The plates were then inoculated with 10 μL of the inoculum resulting in a final cell density of approximately 5×10^5 CFU/mL, per well.”
as §6, with “drug” for “peptide”
as §10

[11] = Pseudomonas aeruginosa (n = 109)
[12] = Klebsiella pneumoniae (n = 101)

For `CC(C)[C@H](NC(=O)[C@H](Cc1c[nH]c2ccccc12)NC(=O)[C@H](CCCNC(=N)N)NC(=O)[C@H](CCCNC(=N)N)NC(=O)[C@@H](NC(=O)[C@@H](NC(=O)[C@H](CCCNC(=N)N)NC(=O)[C@@H](NC(=O)[C@@H](NC(=O)[C@H](CCCNC(=N)N)NC(=O)[C@H](CCCNC(=N)N)NC(=O)[C@H](Cc1c[nH]c2ccccc12)NC(=O)[C@@H](NC(=O)[C@H](CCCNC(=N)N)NC(=O)[C@H](CCCNC(=N)N)NC(=O)[C@@H](NC(=O)[C@H](CCCNC(=N)N)NC(=O)[C@H](CCCNC(=N)N)NC(=O)[C@@H](NC(=O)[C@H](Cc1c[nH]c2ccccc12)NC(=O)[C@H](CCCNC(=N)N)NC(=O)[C@@H](N)CCCNC(=N)N)C(C)C)C(C)C)C(C)C)C(C)C)C(C)C)C(C)C)C(C)C)C(=O)N[C@@H](CCCNC(=N)N)C(=O)N[C@@H](CCCNC(=N)N)C(N)=O` [SEQ ID NO: 1] (H-RRWVRRVRRVWRRVVRVVRRWVRR-NH2), the MIC ([1]; ATCC 25922) was 4 µg/mL (≈ 1.18 µM), the MIC ([2]; ATCC 27853) was 8 µg/mL (≈ 2.35 µM) and the MIC ([3]; ATCC 43300) was 4 µg/mL (≈ 1.18 µM). For the same compound, the MIC ([4]; USA100) was 4 µg/mL (≈ 1.18 µM), the MIC [5] was 8 µg/mL (≈ 2.35 µM) and the “Mode (MIC)” value [6] was 4 µg/mL. The MIC90 ([6]; Acinetobacter colistin-resistant, n=21) was 16 µg/mL (≈ 4.71 µM), the MIC90 ([6]; Acinetobacter spp. (n = 104)) was 16 µg/mL (≈ 4.71 µM) and the “Mode (MIC)” value ([7]; isolates (n = 101)) was 2 µg/mL. It also gave an MIC90 ([8]; K. pneumoniae colistin-resistant, n=28) of 16 µg/mL (≈ 4.71 µM), an MIC90 ([9]; P. aeruginosa colistin-resistant, n=8) of 16 µg/mL (≈ 4.71 µM) and an MIC90 [9, 11] of 16 µg/mL (≈ 4.71 µM). The “Mode (MIC)” value [10] was 16 µg/mL.
Colistin [reference compound] showed an MIC ([1]; Escherichia coli ATCC 25922 (QC)) of 0.12 µg/mL, an MIC ([2]; Pseudomonas aeruginosa ATCC 27853 (non-MDR; QC)) of 0.25 µg/mL and an MIC ([3]; Staphylococcus aureus ATCC 43300 (MRSA)) greater than 32 µg/mL. For the same compound, the MIC ([4]; Staphylococcus aureus NRS382 (USA100; HA-MRSA)) was greater than 32 µg/mL, the MIC [5] was greater than 32 µg/mL and the MIC50 ([6]; Acinetobacter spp. (n = 104)) was 0.25 µg/mL. For the same compound, the MIC90 ([6]; Acinetobacter spp. (n = 104)) was greater than 32 µg/mL, the “Mode (MIC)” value ([6]; Acinetobacter spp. (n = 104)) was 0.25 µg/mL and the “% R (percent of isolates resistant)” value ([6]; Acinetobacter spp. (n = 104), CLSI breakpoints) was 20.2%. For the same compound, the MIC50 ([7]; Escherichia coli (n = 101)) was 0.12 µg/mL, the MIC90 ([7]; Escherichia coli (n = 101)) was 0.12 µg/mL and the MIC range ([7]; Escherichia coli (n = 101)) was ≤0.03-0.5 ^ μg/mL. For the same compound, the “Mode (MIC)” value ([7]; Escherichia coli (n = 101)) was 0.12 µg/mL, the “% R (percent of isolates resistant)” value ([7]; Escherichia coli (n = 101), CLSI breakpoints, colistin EUCAST) was 0% and the MIC50 [8, 12] was 0.12 µg/mL. For the same compound, the MIC90 [8, 12] was 32 µg/mL, the “Mode (MIC)” value [8, 12] was 0.12 µg/mL and the “% R (percent of isolates resistant)” value ([8]; Klebsiella pneumoniae (n = 101), CLSI breakpoints, colistin EUCAST) was 27.7%. For the same compound, the MIC50 [9, 11] was 0.5 µg/mL, the MIC90 [9, 11] was 1 µg/mL and the “Mode (MIC)” value [9, 11] was 0.5 µg/mL. The “% R (percent of isolates resistant)” value ([9]; Pseudomonas aeruginosa (n = 109), CLSI breakpoints) was 7.3%, the MIC50 ([10]; Enterobacter spp. (n = 102)) was 0.12 µg/mL and the MIC90 ([10]; Enterobacter spp. (n = 102)) was 0.25 µg/mL. The “Mode (MIC)” value ([10]; Enterobacter spp. (n = 102)) was 0.12 µg/mL and the “% R (percent of isolates resistant)” value ([10]; Enterobacter spp. (n = 102), CLSI breakpoints, colistin EUCAST) was 5.8%.
